The source of these data is article PMC7408547, “Bivalent Inhibitor with Selectivity for Trimeric MMP-9 Amplifies Neutrophil Chemotaxis and Enables Functional Studies on MMP-9 Proteoforms” (Cells, 2020).

Entries after “also recorded” stand apart in the source; their conditions may differ.

Test [1] deals with C57BL/6 mice. As to the kind of experiment: Mouse endotoxemia model. It is filed as in vivo. As to conditions: for levels of MMP-9 in plasma and lungs (Western blot): 5 h after LPS/compound administration. The method, then:
Endotoxemia was induced in 8-week old C57BL/6 mice by intraperitoneal (i.p.) injection of lipopolysaccharides (LPS) (Escherichia coli 0111:B4, cat. no. 4391, Sigma-Aldrich, St. Louis, MO, USA ) at 10 mg/kg. Control mice were injected with an equal volume of vehicle (pyrogen-free phosphate-buffered saline). A volume of 500 µl compound 5 or 7, diluted in PBS with 2% DMSO (2 mg/mL), was injected i.p. at the same time as the LPS injection (± 50 mg/kg). […] After induction of endotoxemia, progression of the disease was monitored by hourly evaluation of mouse body temperature (rectal probe) and disease scoring by use of the mouse sepsis score (MSS) as described. When the MSS score was above 21, humane endpoints were reached and mice were sacrificed. Blood was collected by cardiac puncture with a heparin-coated needle and syringe, and immediately processed by centrifugation (2000× g for 10 min at 4 °C). The supernatant (plasma) was collected and stored for further analysis. Mice were dissected and organs were stored for further analysis. Bone marrow cells were collected from femora by flushing the medullary cavity with PBS and after centrifugation the cell pellet was immediately processed for downstream analysis. All procedures were conducted in accordance with protocols approved by the local ethics committee (project number P128/2019, KU Leuven, Belgium).
Tissues were homogenized and proteins extracted with a Precellys lysing kit (Bertin Technologies, Rockville, MD, USA). Briefly, tissues were placed in hard tissue homogenizing CK28 tubes (Bertin Technologies, Rockville, MD, USA). Then, 600 µL of RIPA buffer was added to all tubes and homogenization was done using the Precellys®24 (Bertin Technologies, Rockville, MD, USA). To precipitate all tissue debris, the tubes were centrifuged at 20,800× g and 4 °C for 15 min. Supernatant, containing soluble proteins, was collected and used for further analysis. Total protein content of all samples was determined by using a standard Bradford assay (Bio-Rad, Hercules, CA, USA). […] Proteins were transferred to PVDF membranes using the Trans-Blot Turbo Transfer System with associated materials and protocols (Biorad, Hercules, CA, USA). Next, membranes were blocked for 1 h in 5% BSA with TBST buffer (150 mM NaCl, 0.1% Tween 20, 50 mM Tris, pH 7.5). Membranes were incubated overnight with anti-MMP-9 (AF909, R & D systems, Minneapolis, MO, USA) or anti-tubulin (MA5-16308-HRP, Invitrogen, Carlsbad, CA, USA) antibodies. After washing, the blot was incubated with peroxidase-conjugated anti-goat IgG (PI-9500, Vector Labs, Burlingame, CA, USA) or anti-mouse IgG (115-035-071, Jackson ImmunoResearch, PA, USA) for 1 h at room temperature. […]

Test [2] concerns C57BL/6 mice. As to the kind of experiment: Mouse air pouch model of in vivo chemotaxis towards LPS. As to conditions: for total amount of white blood cells recruited to the pouches: compound 5 µg with LPS 2 µg, 4 h after injection. The method, then:
Air pouches were established by injecting C57BL/6 mice on dorsal sites with 3 mL filtered air (0.20 μm filter) on days 0 and 3. On day 6, test samples were injected in a total volume of 1 mL and at the indicated amount. After 4 h, mice were euthanized and the exudates of the pouches were collected after injection of 1 mL pyrogen-free PBS containing 20 U/mL heparin and 2% KnockOut™ Serum Replacement (Gibco, Waltham, MA, USA), and followed by 30 sec of gentle massage. This procedure was repeated twice with 2 mL buffer. Next, the pouch fluid was centrifuged (10 min, 500× g) and supernatant and cell pellets were separated for further analysis. Data were collected during three independent experiments with 3–4 mice per group. All procedures were conducted in accordance with protocols approved by the local Ethics Committee (License number P033/2018, Belgium).
For microscopic evaluation of cells derived from air pouches, 75 × 10^3 cells were deposited evenly onto a glass slide by centrifugation using a Shandon Cytospin 2 apparatus (Thermo Shandon, Pittsburgh, PA, USA). Next, the preparations were stained with Hemacolor (Merck Chemicals, Darmstadt, Germany). Cells were divided into 4 categories; neutrophils, monocytes/macrophages, lymphocytes and other cells. For each condition, three times 100 cells were counted and the average was used as a final value.
Approximately 10^6 cells were incubated for 15 min with the Fc-receptor-blocking antibodies anti-CD16/anti-CD32 (BD Biosciences Pharmingen, San Diego, CA, USA) and with a Zombie Aqua™ viability dye (BioLegend, San Diego, CA, USA). […] Cells were analyzed on a BD LSR Fortessa X20 with DIVA software (BD, Franklin Lakes, NJ, USA, v9.0). Results were further analyzed with the FlowJo software (BD, Franklin Lakes, NJ, USA, v10.0). […]

The mark [3] stands for this setting: 10 mg/kg LPS i.p. and ± 50 mg/kg compound i.p. simultaneously, hourly.

`CC(C)[C@H](C(=O)O)N(CCNC(=O)c1cccc(C(=O)NCCN([C@@H](C(=O)O)C(C)C)S(=O)(=O)c2ccc(-c3ccccc3)cc2)c1)S(=O)(=O)c1ccc(-c2ccccc2)cc1` [Compound 7]: the “disease score (mouse sepsis score, MSS)” value with C57BL/6 mice [1] (setting [3]) is on record as “(although not significant) increase in disease score; also recorded: did not alter disease scores compared to compound 5”. Moreover, in the test with C57BL/6 mice [1] (setting [3]), the mouse body temperature entry is “early and significant drop in mouse body temperature”. The “levels of MMP-9 in plasma and lungs (Western blot)” value in the test with C57BL/6 mice [1] is “further induce the presence of MMP-9; also recorded: increased”; in the test on C57BL/6 mice [1] (listed as bivalent inhibitor), “significantly increased levels of MMP-9 in plasma and lungs”. For the same compound, the “neutrophil migration towards E. coli-derived LPS” value with C57BL/6 mice [2] (air pouch, 4 h) is on record as “increases neutrophil migration”. Moreover, the “total amount of white blood cells recruited to the pouches” value in the test on C57BL/6 mice [2] is on record as “significant increase compared to LPS alone”; in the test on C57BL/6 mice [2] (listed as bivalent inhibitor) it was “amplified leukocyte influxes”.
